Reference: US20090318534A1, “METHODS AND COMPOSITIONS FOR THE TREATMENT OF SKIN DISEASES AND DISORDERS” (THE REGENTS OF THE UNIVERSITY OF CALIFORNIA, priority 2006, published 2009)
“Also recorded” adds a separate entry of the source. Blank lines part the entries; values can stand above or below the molecule they belong to.

Key:
[1] = system: protease activity in rosacea skin; experiment: Skin protease activity (BODIPY FL casein substrate) of rosacea skin extracts with protease inhibitors; type: biochemical, human; details: tape-stripped rosacea facial skin extracts, FITC/BODIPY FL casein, 37° C. 24 h; 20 μg/ml aprotinin, 200 μM AEBSF; FIG. 3k
Method: Skin protease activity. To obtain skin surface protease, facial skin was tape-stripped 20 times then immersed in 1 ml 1 M acetic acid and incubated 4° C. overnight, extracts were lyophilized and the pellet dissolved in 40 μl of 1×PBS, pH 7.4. Protease activity was monitored with EnzCheck® Protease Assay Kit green fluorescence (Molecular Probes, Inc., Eugene, Oreg.) according to manufacturer's instructions. Briefly, 10 μl of the aqueous solution collected from the skin surface was mixed with 190 μl of BODIPY FL casein substrate in 10 mM Tris-HCl, pH 7.8, and incubated at 37° C. for 24 h. Protease activity was monitored as increased fluorescence with SpectraMax GEMINI EM (Molecular Devices Corporation, Sunnyvale, Calif.). In some experiments protease inhibitors were added including mixed protease inhibitors (Complete EDTA-free, 1 tablet/50 ml; Roche, Indianapolis, Ind.), 200 μg/ml bestatin, 20 μg/ml E-64, and 20 μg/ml aprotinin (Sigma-Aldrich, St. Louis, Mo.), 200 μM 4-(2-aminoethyl)-benzenesulfonylfluoride (AEBSF), 200 μM human neutrophil elastase inhibitor (methoxysuccinyl-Ala-Ala-Pro-Ala-chloromethyl ketone), 200 μM human leukocyte elastase inhibitor (methoxysuccinyl-Ala-Ala-Pro-Val-chloromethylketone, Calbiochem, San Diego, Calif.).

[2] = biological target: T1, kallikrein stratum corneum tryptic enzyme (SCTE) (Homo sapiens, UniProt Q9Y337); experiment: Inhibition of SCTE in vitro; type: biochemical
T1 sequence (Q9Y337 23-293): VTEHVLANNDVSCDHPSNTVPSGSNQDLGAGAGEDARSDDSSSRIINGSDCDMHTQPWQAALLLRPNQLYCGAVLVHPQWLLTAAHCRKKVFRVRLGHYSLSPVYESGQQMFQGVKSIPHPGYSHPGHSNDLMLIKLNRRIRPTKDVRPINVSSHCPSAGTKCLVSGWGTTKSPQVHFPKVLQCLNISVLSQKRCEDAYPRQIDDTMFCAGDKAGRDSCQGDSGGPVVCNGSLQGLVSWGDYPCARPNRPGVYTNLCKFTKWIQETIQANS
Text: In one aspect of the disclosure, a method of treatment of inflammatory diseases and disorders, rosacea and or acnes comprises inhibiting cathelicidin expression or activity. Examples of compositions and methods for inhibiting the expression of cathelicidins include antisense, ribozyme and gene therapy techniques. For example, rosacea can be inhibited or treated using antisense or ribozyme therapies that reduce the expression of cathelicidin. In one aspect, a vitamin D inhibitor, or vitamin D receptor antagonist can be used to reduce expression of a cathelicidin. Examples of compositions and methods for inhibiting cathelicidin activity include antibodies and small molecule agents. In one aspect, the treatment is at the site of inflammation through topical inhibition of Vitamin D activity, inhibiting of a Vitamin D receptor activity, or an inhibitor of a protease that cleaves full length cathelicidin into its active fragments is provided. For example, a method of the disclosure comprises inhibiting the kallikrein stratum corneum tryptic enzyme (SCTE), an enzyme that cleaves the cathelicidin precursor protein.

[3] = system: Normal human keratinocytes; experiment: Measurement of IL-8 release; type: cell-based; details: peptides 3.2 μM, 6 h, ELISA; FIG. 4a
Method: Measurement of IL-8 release. Normal human keratinocytes (Cascade Biologics) were grown in EpiLife medium (Cascade Biologics) supplemented with 0.06 mM Ca2, 1% EpiLife defined growth supplement, and 1% penicillin/streptomycin (Invitrogen Life Technologies). Cells were grown at 37° C. in a humidified atmosphere of 5% CO2 and 95% air. Human keratinocytes were cultured to confluence and treated with the cathelicidin peptides (3.2 μM) for 6 h. Supernatants were collected and placed in a sterile 96-well plate for ELISA. IL-8 production was determined by ELISA (R&D systems) according to the manufacturer's instructions.

[4] = system: mouse skin; experiment: Mouse skin inflammation model, subcutaneous injection of cathelicidin peptides; type: in vivo, Balb/C and C57/B16 mice; details: for skin inflammation (erythema, vascular dilatation) / histology of injected skin: 320 μM in 40 μl; for skin inflammation (erythema, vascular dilatation): injected twice a day for 2 d, assessed after 48 hr; for histology of injected skin: biopsy after 48 hr
Method: Mouse skin inflammation models. All animal procedures were approved by the Veterans Affairs (VA) San Diego Healthcare System subcommittee on animal studies. Balb/C and C57/B16 mice shaved 24 h prior to treatments and injected subcutaneously on the back with 40 μl of peptide (320 μM) twice a day. Forty-eight h after initial injection (total 4 injections), skin inflammation was assessed by the severity of erythema and edema, then biopsied for histology.
Mouse skin inflammation models. Balb/C or […] mice shaved 24 h prior to treatments were injected subcutaneously on the back with 40 μl of peptide at different concentrations (320, 32, 3.2, 0.32 μM, and PBS as 0 μM) twice a day. Forty-eight h after initial injection (total 4 injection), skin inflammation was assessed by the severity of erythema and edema. Skin was then biopsied for hematoxlin eosin staining to examine the histopathological changes. Frozen sections were also prepared and processed for immunostaining that included rat monoclonal anti-mouse Ly-6G (BD Biosciences, San Jose, Calif.) or rat monoclonal anti-mouse CD31 (BD Biosciences). Goat anti-rat IgG conjugated to FITC (Abcam Inc., Cambridge, Mass.) was used as the secondary antibody. Nuclei were stained with DAPI and sections were mounted in ProLong Anti-Fade reagent (Molecular Probes). Images were obtained using an Olympus BX41 microscope (Scientific Instrument Company, Temecula, Calif.).

[5] = system: mouse skin; experiment: Subcutaneous injection of SCTE in mice, skin inflammation and cathelicidin processing; type: in vivo
Method: Skin from Spink5^−/− mice had altered expression of cathelicidin peptides similar to that seen in rosacea (FIG. 4i). The main peak was GLL-34 (m/z 3,877; FIG. 4i, arrowhead), a mouse cathelicidin peptide similar in activity to human LL-37. Like LL-37, GLL-34 was not detected in wild-type mouse littermates with normal serine protease activity. […] To determine whether an increase in SCTE results in greater inflammation, SCTE was injected subcutaneously in a manner similar to that used for the cathelicidin peptides themselves. The amount of SCTE in human skin is as high as 2-13 ng per mg of dry weight of skin. From the data of the protease assay, the amount of serine protease activity in lesional skin of individuals with rosacea was estimated to be as high as 500 ng of tryptic kallikrein per mg of dry weight of skin. Therefore, […] of SCTE was injected twice a day for 2 d to mimic local concentrations seen in rosacea. […] Therefore, the increase in SCTE observed in rosacea would account for the pathological changes observed this disease.

[6] = biological target: T2, mouse cathelicidin (UniProt P51437)
T2 sequence: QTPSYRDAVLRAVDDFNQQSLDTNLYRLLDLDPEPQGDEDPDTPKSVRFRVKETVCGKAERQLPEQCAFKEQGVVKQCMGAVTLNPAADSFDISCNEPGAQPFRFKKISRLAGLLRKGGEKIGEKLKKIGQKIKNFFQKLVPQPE

Molecule: NCCc1ccc(S(=O)(=O)F)cc1 [AEBSF, 4-(2-aminoethyl)-benzenesulfonylfluoride]
- protease activity in rosacea skin [1]: completely suppressed protease activity; also recorded: effective in eliminating activity
- inhibition of SCTE in vitro [2]: can inhibit this enzyme in vitro

Molecule: DI-27: synthetic cathelicidin peptide DISCDKDNKRFALLGDFFRKSKEKIGK (SEQ ID NO:7) (Partial Peptide Sequence from TOF-MS)
- secretion of IL-8 from cultured human keratinocytes [3]: did not

Molecule: FA-29: synthetic cathelicidin peptide FALLGDFFRKSKEKIGKEFKRIVQRIKDF (SEQ ID NO:10) (Partial Peptide Sequence from TOF-MS)
- secretion of IL-8 from cultured human keratinocytes [3]: induced secretion of IL-8
- skin inflammation (erythema, vascular dilatation) [4]: induced erythema and vascular dilatation
- histology of injected skin ([4]; twice a day for 2 d): neutrophilic infiltrate, thrombosis and hemorrhage

Molecule: KR-20: synthetic cathelicidin peptide KRIVQRIKDFLRNLVPRTES (SEQ ID NO:15)
- secretion of IL-8 from cultured human keratinocytes [3]: did not induce cytokine release
- skin inflammation (erythema, vascular dilatation) [4]: did not induce inflammation

Molecule: LL-37: synthetic cathelicidin peptide LLGDFFRKSKEKIGKEFKRIVQRIKDFLRNLVPRTES (SEQ ID NO:14) (Partial Peptide Sequence from TOF-MS)
- secretion of IL-8 from cultured human keratinocytes [3]: induced secretion of IL-8
- skin inflammation (erythema, vascular dilatation) [4]: induced erythema and vascular dilatation
- histology of injected skin ([4]; twice a day for 2 d): neutrophilic infiltrate, thrombosis and hemorrhage
- lowest concentration with dose-dependent inflammatory reaction ([4]; 320-0.32 μM, 40 μl, twice a day for 2 d, FIG. 7d, Balb/C and C57/B16): 3.2 µM

Molecule: SCTE: kallikrein SCTE (stratum corneum tryptic enzyme, KLK5), serine protease that cleaves cathelicidin precursor
- cell infiltration after SCTE injection in Camp−/− mice compared with wild type mice ([5]; Camp−/− versus wild type, infiltrated cells per HPF, n=4, P<0.05): considerably less cell infiltration; also recorded: significantly less cell infiltration
- skin inflammation and cathelicidin processing after SCTE injection ([5]; active SCTE injected subcutaneously twice a day for 2 d, versus control (boiled SCTE)): induced erythema and inflammatory cell infiltration accompanied by processing of cathelicidin peptide; also recorded: showed inflammation and processed cathelicidin peptide

- inhibition of SCTE in vitro [2]: can inhibit this enzyme in vitro
Molecule: aprotinin
- protease activity in rosacea skin [1]: completely suppressed protease activity; also recorded: effective in eliminating activity

Molecule: stratum corneum tryptic enzyme (SCTE)
- cathelicidin processing in mouse skin after subcutaneous SCTE injection (SELDI-TOF-MS) [6]: SCTE-treated skin showed inflammation and processed cathelicidin peptide (m/z 4,244, sequence FKKISRLAGLLRKGGEKIGEKLKKIGQKIKNFFQKLV (SEQ ID NO:3))
